Columns and labels:
[1] = system: cancer stem cells; experiment: Cancer stem cell marker expression; type: cell-based
Description: CSCs have significant impact on the tumor progression, drug resistance, recurrence and metastasis in different types of malignancies. Conventional cancer chemotherapy often fails as most anti-cancer drugs are not effective against drug-resistant CSCs. These surviving CSCs lead to relapse and metastasis. Most studies report that conventional therapeutic agents have limited access to the CSCs due to their hypoxic microenvironment and distant location from the vasculature that retards the efficacy of anti-CSC drugs (FIG. 14). However, the disclosed compounds may overcome this limitation and may penetrate into a deeper location and destroy CSCs. Accordingly, in embodiments, the present invention provides a method of inhibiting cancer stem cell survival and/or self-renewal comprising administering to a cancer stem cell an effective amount of a compound disclosed herein, e.g., Compound I (FIG. 13).
The compounds of the disclosure inhibited the expression of the genes in the follow cancers (FIG. 18): • Breast: CD44+CD24−/low Lineage−, ALDH-1high • Liver: CD133+, CD49f+, CD90+ • Colon: CD133+, CD44+, CD166+, EpCAM+, CD24+ • Pancreatic: CD133+, CD44+, EpCAM+, CD24+ • Leukemia: CD34+CD38− • Lungs: CD133+, ABCG2^High • Leukemia: CD34+, CD38−, HLA−, DR−, CD71−, CD90−, CD117−, CD123+
Reduction of stem cell surface marker expressions are seen within 1 hour and up to a maximum of […]. […]

[2] = Pharmacokinetics and tissue distribution in nude mouse; type: in vivo
Method: The pharmacokinetics and toxicity of Compound I was studied in vivo in a nude mouse model.
Tissue-to-plasma ratios were taken of Compound I in animals at 1, 2, 4, 24 h after administration. At 60 min, the highest levels of Compound I were found in the lungs, brain, stomach, liver, mammary gland, and small intestine, all of which are highly perfused organs followed by spleen and heart. Up to 72 h, Compound I was detected in most organs, but not in the femur and kidney. The ratios in most organs continued to increase up to 4 h. […] There was no change in body weight monitored for a 7-day period after drug administrations.
As explained above, a pharmacokinetic study investigated the concentrations of Compound I at different time intervals after either oral administration or intravenous injection. […] In the gastrointestinal tract, a significant amount of Compound I accumulated in the stomach, implying that Compound I may be absorbed through stomach tissue and distributed throughout the body. […] Collectively, our current findings will provide a more complete understanding of the biological actions of Compound I in vivo.

[3] = treatment group compared to control group

COc1cc(/C=C/C(=O)/C=C/C=C/c2cc(OC)c(O)c(OC)c2)cc(OC)c1 [Compound I]
cancer stem cell markers / gene expression [1]: inhibition | Toxicity ([2]; 10 mg/kg IV): No toxicity was observed | tissue-to plasma ratio in the hippocampus and brain ([2]; 1, 2, and 24 h after dosing): increased significantly and continuously | body weight ([2]; 7-day period after administration): no change | tissue distribution ([2]; intravenous administration): widely distributed in several tissues | absorbed or distributed to the vital organs ([2]; mouse, in vivo): approximately 98% | excreted in either urine or feces ([2]; mouse, in vivo): less than 2% | time Compound I was detected in most organs ([2]; not in the femur and kidney): Up to 72 h | signs of discomfort, cardiovascular or respiratory disorders ([2]; throughout the study period): No signs of discomfort or any cardiovascular or respiratory disorders were observed | increase in the area under the curve (AUC) [2, 3]: 28 fold | increase in the maximum plasma concentration (Cmax) [2, 3]: 29 fold

— patent US20230270692A1, “COMPOUNDS FOR CHRONIC DISORDERS” (Pillai Universal LLC, priority 2020, published 2023)
